Laboratory results from EP4111863A1, “PHOSPHORUS USE EFFICIENCY ENHANCERS AS PLANT GROWTH PROMOTORS” (EuroChem Antwerpen, priority 2021, dated 2023).

Columns and labels:
[1] = tested on: SPX1; test: Chemical activity assessment: SPX1 phosphate starvation biomarker, pSPX1::GUS reporter line, GUS stained area; assay type: in vivo, Arabidopsis thaliana; conditions: for GUS (SPX1) stained area normalized to the number of seeds (pixels): 50 µM compound, low phosphate modMS liquid medium, 7 days after germination, low phosphate control average of the same plate
Experimental: (§1) All Arabidopsis plant experiments were performed using the Arabidopsis thaliana Columbia-0 background. The Arabidopsis pSPX1::GUS line is described in the […] 2008, 54: 965-975. For rice, the cultivar Nipponbare was used. For maize, the cultivars DKC 2931 and B104 were used for regular pot experiments and sand-based pot experiments, respectively. For soybean, the cultivar Primus was used. […] The medium was solidified due to the addition of 0,6% Gelrite, unless stated otherwise. In case of vertical plates (root length and root hair measurements), the medium was supplied with 0.5% of sucrose and 1 µM (low phosphate, 1 µM KH2PO4, 9.9 mM KCI), 10 µM (low phosphate 10 µM KH2PO4, 9.9 mM KCI) or 1.25 mM KH2PO4 (high phosphate). Arabidopsis seeds were stratified for 2 days at 4 °C before germination. Seedlings were germinated in climate-controlled growth chambers at 22 °C under continuous light (100 µmol m^-2 s^-1). Husked rice seeds were germinated on wetted Whatman paper for 2 days at 37 °C and then transferred to Sterivent boxes or square Petri dishes with solid medium. Maize and soybean seeds were wetted 24 hours at room temperature prior to sowing in pots.
For the chemical activity assessment 3 to 8 seeds per well of Arabidopsis pSPX1::GUS line were sown in 96-well plates containing 150 µl of low phosphate modMS liquid medium containing 1% of sucrose. Compounds were added in 50 µM concentration, starting from a 5 mM stock of compounds solved in DMSO. Different chemical substances were separately added to different wells. Per plate, 16 control wells were used, 8 containing only the low phosphate medium and 1% DMSO, and 8 containing high phosphate medium and 1% DMSO. 7 days after germination, plates were scanned using a flatbed scanner (EPSON Expression 11000XL) and analyzed for leaf size. After scanning, the growth medium was replaced by GUS staining solution (see Plant Mol. Biol. Rep. 1994, 12: 37-42 for details) and incubated for 1.5 hours at 37 °C. The plates were scanned a second time and analyzed for GUS signal area. Measurements of both leaf area and GUS signal area were conducted by filtering out and measure the green and blue signal, respectively using ImageJ software. If the green leaf area was 50% or less than the control, samples were omitted. Additionally, all results were visually screened for leaf size and GUS signal.

[2] = tested on: Arabidopsis; test: Arabidopsis vertical plate growth assay (primary root length, shoot biomass); assay type: in vivo, Arabidopsis thaliana; conditions: low phosphate
Experimental: as §1
Arabidopsis primary root growth experiments were done on MS1/2 on vertical standing plates and roots were measured 11 days after germination. Roots were imaged using a flatbed scanner (EPSON Expression 11000XL) and root length was measured using ImageJ software. Arabidopsis shoot biomass was determined in 11 days after germination and growth on vertical standing plates with modMS. Arabidopsis leaf area was measured 21 days after germination on horizontal plates with modMS medium. Plates were scanned from the top using a flatbed scanner (EPSON Expression 11000XL) and the visible leaf area was measured using ImageJ software. Rice plate experiments used vertically standing Petri dishes containing MS1/2 medium (low phosphate - 0.001 mM) solidified with 0.8% washed agar. Plant height was measured 11 days after germination. Rice box experiments used modMS medium and a low phosphate condition of 0.025 mM phosphate. Plant height was measured 13 days after germination. All growth experiments occurred with 10 µM of compound and in low phosphate conditions, unless stated otherwise. Controls always received the same DMSO concentration.

[3] = tested on: Maize; test: Long term maize pot experiment, cultivar B104 (Phenovision platform); assay type: in vivo
Experimental: (§2) Regular Arabidopsis and maize pot experiments used an unfertilized potting soil, which was supplemented at the start of the experiment with 50 ml H2O containing 0.25 g/l NH4NO3 and 0.44 g/l (high phosphate) or no (maize and soybean) or 0.11 g/l KH2PO (Arabidopsis) for low phosphate conditions. For the sand-based maize pot experiment, sand was supplemented with 50 ml H2O containing 0.25 g/l NH4NO3 and 0.38 g/l (high phosphate) or 0.02 g/l (low phosphate) KH2PO4. Potassium was balanced via addition of KCI. Compound concentration was 10 µM, calculated based on the total water content after watering, and was added at the start of the experiment (Arabidopsis) or once a week (maize). Indexed chlorophyll contents were received via a SPAD 502 Plus Chlorophyll Meter. All parameters in the sand experiment, except the rate of leaf 4 (measured the first 4 days after emergence), were measured 19 days after sowing. Measurements in the pot experiments with potting soil were done after 4 weeks of growth, except for leaf 5, which was measured at 26 days. s. The long term maize pot experiment was performed on the automated Phenovision platform (see Mertens et al, 2021, 20 https.l/doi.org/10.3389/fpls.2021.640914) with maize cultivars B104 and DKC2931. End point measurements occurred after 90 days (B104) or 70 days (DKC2931). Plants were grown on an unfertilized potting soil, which was fertilized bi-weekly with 50 mL modified Hoagland solution (2.5 x concentrated; but with 0.25 mM KH2PO4.).

[4] = tested on: Maize; test: Sand-based maize pot experiment; assay type: in vivo; conditions: low phosphate, 10 µM
Experimental: as §1
(§3) Regular Arabidopsis and maize pot experiments used an unfertilized potting soil, which was supplemented at the start of the experiment with 50 ml H2O containing 0.25 g/l NH4NO3 and 0.44 g/l (high phosphate) or no (maize and soybean) or 0.11 g/l KH2PO (Arabidopsis) for low phosphate conditions. For the sand-based maize pot experiment, sand was supplemented with 50 ml H2O containing 0.25 g/l NH4NO3 and 0.38 g/l (high phosphate) or 0.02 g/l (low phosphate) KH2PO4. […] Compound concentration was 10 µM, calculated based on the total water content after watering, and was added at the start of the experiment (Arabidopsis) or once a week (maize). […] All parameters in the sand experiment, except the rate of leaf 4 (measured the first 4 days after emergence), were measured 19 days after sowing. Measurements in the pot experiments with potting soil were done after 4 weeks of growth, except for leaf 5, which was measured at 26 days. s. […]

[5] = tested on: Arabidopsis; test: Arabidopsis horizontal plate growth assay (leaf area); assay type: in vivo, Arabidopsis thaliana; conditions: 10 µM, 21 days after germination
Experimental: (§4) All Arabidopsis plant experiments were performed using the Arabidopsis thaliana Columbia-0 background. The Arabidopsis pSPX1::GUS line is described in the […] 2008, 54: 965-975. For rice, the cultivar Nipponbare was used. For maize, the cultivars DKC 2931 and B104 were used for regular pot experiments and sand-based pot experiments, respectively. For soybean, the cultivar Primus was used. […] The medium was solidified due to the addition of 0,6% Gelrite, unless stated otherwise. […]
(§5) Arabidopsis primary root growth experiments were done on MS1/2 on vertical standing plates and roots were measured 11 days after germination. Roots were imaged using a flatbed scanner (EPSON Expression 11000XL) and root length was measured using ImageJ software. Arabidopsis shoot biomass was determined in 11 days after germination and growth on vertical standing plates with modMS. Arabidopsis leaf area was measured 21 days after germination on horizontal plates with modMS medium. Plates were scanned from the top using a flatbed scanner (EPSON Expression 11000XL) and the visible leaf area was measured using ImageJ software. […] Plant height was measured 11 days after germination. […] Plant height was measured 13 days after germination. […]

[6] = tested on: Arabidopsis, rice, soybean and maize; test: Growth experiments in different growing systems and plant species (summary statement); assay type: in vivo; conditions: result in words; plate, box or pot experiments
Experimental: as §4, §5

[7] = tested on: Maize; test: Regular maize pot experiment (potting soil); assay type: in vivo; conditions: low phosphate, 10 µM once a week
Experimental: as §1, §3

[8] = tested on: Maize; test: Long term maize pot experiment, cultivar DKC2931 (Phenovision platform); assay type: in vivo; conditions: DKC2931, 70 days
Experimental: as §2

[9] = tested on: Rice; test: Rice plate experiment; assay type: in vivo; conditions: low phosphate 0.001 mM, 10 µM, 11 days after germination
Experimental: as §4, §5

[10] = tested on: Arabidopsis; test: Arabidopsis pot experiment; assay type: in vivo, Arabidopsis thaliana; conditions: low phosphate, 10 µM, 4 weeks of growth
Experimental: as §4
as §3, with “conditions.” for “conditions. For the sand-based maize pot experiment, sand was supplemented with 50 ml H2O containing 0.25 g/l NH4NO3 and 0.38 g/l (high phosphate) or 0.02 g/l (low phosphate) KH2PO4.”

[11] = tested on: Rice; test: Rice box experiment; assay type: in vivo; conditions: low phosphate 0.025 mM, 10 µM, 13 days after germination
Experimental: as §4, §5

[12] = Arabidopsis vertical plate, 10 µM, 11 days after germination
[13] = Maize pot long term, B104, 90 days

O=C(C1CN(C(=O)CSc2nc3ccccc3o2)c2ccccc2O1)N1CCOCC1 (stereo not shown)
GUS (SPX1) stained area normalized to the number of seeds (pixels) ([1]; Table 3): 34 pixels

Cc1cccc(-n2c(SCC3COc4ccccc4O3)nnc2N2CCOCC2)c1 (stereo not shown)
GUS (SPX1) stained area normalized to the number of seeds (pixels) ([1]; Table 3): 26 pixels

CC1CN(CC(=O)Nc2ccccc2Cc2ccccc2)CC(C)O1 (stereo not shown)
GUS (SPX1) stained area normalized to the number of seeds (pixels) ([1]; Table 3): 0 pixels

C#CCNC(=O)CN1CCOC(CC)C1 (stereo not shown)
GUS (SPX1) stained area normalized to the number of seeds (pixels) ([1]; Table 3): 66 pixels

Cc1ccc(C2COCCN2C(=O)Nc2nnc(C(F)F)s2)o1 (stereo not shown)
GUS (SPX1) stained area normalized to the number of seeds (pixels) ([1]; Table 3): 26 pixels

CCC1CN(Cc2cc(=O)n3cc(Cl)ccc3n2)CCO1 (stereo not shown)
GUS (SPX1) stained area normalized to the number of seeds (pixels) ([1]; Table 3): 47 pixels

CC1CN(Cc2nc(-c3ccc(Br)s3)no2)CCO1 (stereo not shown)
GUS (SPX1) stained area normalized to the number of seeds (pixels) ([1]; Table 3): 1 pixels

Cc1nc(Cl)cc(N2CCOCC2c2c(C)nn(C)c2C)n1 (stereo not shown)
GUS (SPX1) stained area normalized to the number of seeds (pixels) ([1]; Table 3): 35 pixels

O=S(=O)(c1ccc(Sc2nnc(-c3ccncc3)[nH]2)nc1)N1CCOCC1
GUS (SPX1) stained area normalized to the number of seeds (pixels) ([1]; Table 3): 6 pixels

O=C(NC1CCSc2ccc(Cl)cc21)c1ccc(N2CCOCC2)c([N+](=O)[O-])c1 (stereo not shown)
GUS (SPX1) stained area normalized to the number of seeds (pixels) ([1]; Table 3): 27 pixels

O=C(CSc1ncnc2sccc12)c1ccc(CC(=O)N2CCOCC2)s1
GUS (SPX1) stained area normalized to the number of seeds (pixels) ([1]; Table 3): 15 pixels

O=C(NC1COc2ccccc21)N1CCOC(c2ccc(Cl)cc2)C1 (stereo not shown)
GUS (SPX1) stained area normalized to the number of seeds (pixels) ([1]; Table 3): 8 pixels

Cc1nc(N2CCOCC2)sc1CNCC1CN(C)CCO1 (stereo not shown) [Compound 4]
Primary root length (cm) [2, 12]: 3.8 cm
Shoot biomass [2, 12]: 26 mg
Primary root length (in % versus control) ([2]; Table 2, versus control without compound): 211%
primary root length relative to the control without compound ([2]; result in words, 10 µM, 11-day-old Arabidopsis plants): almost double
Biomass [3, 13]: 29 g
Plants with developed ears (%) [3, 13]: 54%
Sum of leaf length (cm) [3, 13]: 5473 cm
ear formation ([3]; result in words, maize): stimulated
Crown root number ([4]; 19 days after sowing): 7
Plant height (cm) ([4]; 19 days after sowing): 26 cm
Growth rate of leaf 4 ([4]; first 4 days after emergence): 2.3 cm/day
Leaf area (mm^2) ([5]; low phosphate): 91 mm^2
Leaf area (mm^2) in suboptimal phosphate conditions ([5]; suboptimal phosphate): 151 mm^2
effect on the shoot biomass, leaf area or plant height [6]: clear positive effect
Plant height (cm) ([7]; 4 weeks of growth): 62 cm
Shoot weight ([7]; 4 weeks of growth): 4.4 g
Leaf 5 (cm) ([7]; 26 days): 45 cm
Biomass [8]: 31 g
Plants with developed ears (%) [8]: 100%
Sum of leaf length (cm) [8]: 3894 cm
GUS (SPX1) stained area normalized to the number of seeds (pixels) ([1]; Table 2): 9 pixels
suppression of the SPX1 biomarker (blue GUS staining) ([1]; result in words, 7 days of growth in low phosphate conditions): practically completely suppressed
Plant height (cm) [9]: 15.8 cm
Rosette size (cm^2) [10]: 19 cm^2
Plant height (cm) [11]: 5.1 cm

O=C(c1cccs1)C(C(c1ccc(Cl)cc1)N1CCOCC1)N1CCOCC1 (stereo not shown)
GUS (SPX1) stained area normalized to the number of seeds (pixels) ([1]; Table 3): 3 pixels

Cc1ccc(C(CN2CCOCC2)NC(=O)c2cc(-c3ccccc3)[nH]n2)cc1 (stereo not shown)
GUS (SPX1) stained area normalized to the number of seeds (pixels) ([1]; Table 3): 0 pixels

CCc1ncncc1C(=O)NCCN1CC(C)OC(C)C1 (stereo not shown)
GUS (SPX1) stained area normalized to the number of seeds (pixels) ([1]; Table 3): 362 pixels

COCC1CN(C(=O)NCCc2c[nH]c3ccc(F)cc23)CCO1 (stereo not shown)
GUS (SPX1) stained area normalized to the number of seeds (pixels) ([1]; Table 3): 13 pixels

NC(=O)C1CN(C(=O)C2(c3cccc(C(F)(F)F)c3)CC2)CCO1 (stereo not shown)
GUS (SPX1) stained area normalized to the number of seeds (pixels) ([1]; Table 3): 349 pixels

Cn1cccc1C1COCCN1CCOCC1CC1 (stereo not shown)
GUS (SPX1) stained area normalized to the number of seeds (pixels) ([1]; Table 3): 6 pixels
